Measured values taken from patent US9630929B2, “Benzenesulfonamide compounds and their use as therapeutic agents” (XENON PHARMACEUTICALS INC., priority 2011, dated 2017).

Legend:
[1] = target: NaV1.7 (Homo sapiens (Human), UniProt Q15858); experiment: NaV flux assay, inhibition of NaV1.7; format: cell-based; settings: NaV flux data, included when EP data is not available
[2] = target: NaV1.5 (Homo sapiens (Human), UniProt Q14524); experiment: NaV flux assay, inhibition of NaV1.5; format: cell-based; settings: NaV flux data, included when EP data is not available
Chain of NaV1.5 (Q14524 whole entry): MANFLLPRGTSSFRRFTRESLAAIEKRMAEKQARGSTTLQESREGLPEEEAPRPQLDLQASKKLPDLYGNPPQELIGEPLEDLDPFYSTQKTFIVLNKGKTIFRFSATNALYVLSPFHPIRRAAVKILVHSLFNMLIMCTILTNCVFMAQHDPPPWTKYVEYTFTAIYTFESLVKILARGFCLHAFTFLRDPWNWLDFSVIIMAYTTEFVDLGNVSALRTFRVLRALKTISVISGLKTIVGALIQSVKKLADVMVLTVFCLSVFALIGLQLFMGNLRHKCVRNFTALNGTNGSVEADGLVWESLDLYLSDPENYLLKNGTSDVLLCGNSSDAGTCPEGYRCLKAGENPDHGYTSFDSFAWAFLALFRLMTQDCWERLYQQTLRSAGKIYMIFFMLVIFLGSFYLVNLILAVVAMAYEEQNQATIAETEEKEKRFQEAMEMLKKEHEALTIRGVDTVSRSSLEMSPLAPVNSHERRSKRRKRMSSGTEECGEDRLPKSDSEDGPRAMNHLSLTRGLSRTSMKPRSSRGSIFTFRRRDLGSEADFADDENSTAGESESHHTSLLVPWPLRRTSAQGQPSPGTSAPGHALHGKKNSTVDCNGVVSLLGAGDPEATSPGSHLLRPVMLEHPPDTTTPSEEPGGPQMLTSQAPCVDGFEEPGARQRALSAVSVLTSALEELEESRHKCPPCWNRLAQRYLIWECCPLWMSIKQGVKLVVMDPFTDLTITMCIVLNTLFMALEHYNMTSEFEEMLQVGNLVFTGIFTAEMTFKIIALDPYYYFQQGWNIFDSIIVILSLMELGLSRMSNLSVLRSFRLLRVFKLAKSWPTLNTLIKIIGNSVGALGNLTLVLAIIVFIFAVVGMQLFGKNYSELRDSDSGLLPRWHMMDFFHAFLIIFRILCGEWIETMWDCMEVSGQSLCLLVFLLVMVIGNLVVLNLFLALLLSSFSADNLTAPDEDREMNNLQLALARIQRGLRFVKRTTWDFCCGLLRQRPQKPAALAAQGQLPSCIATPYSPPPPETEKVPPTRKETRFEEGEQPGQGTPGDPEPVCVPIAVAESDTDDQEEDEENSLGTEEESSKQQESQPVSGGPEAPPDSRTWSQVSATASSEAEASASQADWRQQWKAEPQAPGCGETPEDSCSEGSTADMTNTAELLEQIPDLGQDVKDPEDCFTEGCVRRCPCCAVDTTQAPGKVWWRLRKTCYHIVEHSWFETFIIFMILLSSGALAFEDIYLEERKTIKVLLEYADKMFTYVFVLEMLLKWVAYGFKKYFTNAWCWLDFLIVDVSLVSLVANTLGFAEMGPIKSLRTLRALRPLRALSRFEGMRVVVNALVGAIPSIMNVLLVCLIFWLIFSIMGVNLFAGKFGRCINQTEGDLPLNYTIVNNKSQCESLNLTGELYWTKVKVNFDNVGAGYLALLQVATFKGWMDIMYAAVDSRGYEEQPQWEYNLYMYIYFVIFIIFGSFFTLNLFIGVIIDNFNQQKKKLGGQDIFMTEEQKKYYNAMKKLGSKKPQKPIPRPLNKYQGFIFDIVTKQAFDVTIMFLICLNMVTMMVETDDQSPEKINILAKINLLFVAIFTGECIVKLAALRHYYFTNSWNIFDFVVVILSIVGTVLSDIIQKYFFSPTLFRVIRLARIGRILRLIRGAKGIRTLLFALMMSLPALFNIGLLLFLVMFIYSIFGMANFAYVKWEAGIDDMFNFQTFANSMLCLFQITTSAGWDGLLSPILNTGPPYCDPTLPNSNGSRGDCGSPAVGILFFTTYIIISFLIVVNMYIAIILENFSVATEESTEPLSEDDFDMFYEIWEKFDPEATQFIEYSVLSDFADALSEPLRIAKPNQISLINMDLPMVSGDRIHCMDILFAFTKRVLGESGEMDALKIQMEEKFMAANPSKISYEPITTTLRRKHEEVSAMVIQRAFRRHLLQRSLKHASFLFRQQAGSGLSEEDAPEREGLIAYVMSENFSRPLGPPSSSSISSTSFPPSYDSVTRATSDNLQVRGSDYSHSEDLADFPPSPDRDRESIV

Chain of NaV1.7 (Q15858 other isoform, or with tags, fused parts or gaps): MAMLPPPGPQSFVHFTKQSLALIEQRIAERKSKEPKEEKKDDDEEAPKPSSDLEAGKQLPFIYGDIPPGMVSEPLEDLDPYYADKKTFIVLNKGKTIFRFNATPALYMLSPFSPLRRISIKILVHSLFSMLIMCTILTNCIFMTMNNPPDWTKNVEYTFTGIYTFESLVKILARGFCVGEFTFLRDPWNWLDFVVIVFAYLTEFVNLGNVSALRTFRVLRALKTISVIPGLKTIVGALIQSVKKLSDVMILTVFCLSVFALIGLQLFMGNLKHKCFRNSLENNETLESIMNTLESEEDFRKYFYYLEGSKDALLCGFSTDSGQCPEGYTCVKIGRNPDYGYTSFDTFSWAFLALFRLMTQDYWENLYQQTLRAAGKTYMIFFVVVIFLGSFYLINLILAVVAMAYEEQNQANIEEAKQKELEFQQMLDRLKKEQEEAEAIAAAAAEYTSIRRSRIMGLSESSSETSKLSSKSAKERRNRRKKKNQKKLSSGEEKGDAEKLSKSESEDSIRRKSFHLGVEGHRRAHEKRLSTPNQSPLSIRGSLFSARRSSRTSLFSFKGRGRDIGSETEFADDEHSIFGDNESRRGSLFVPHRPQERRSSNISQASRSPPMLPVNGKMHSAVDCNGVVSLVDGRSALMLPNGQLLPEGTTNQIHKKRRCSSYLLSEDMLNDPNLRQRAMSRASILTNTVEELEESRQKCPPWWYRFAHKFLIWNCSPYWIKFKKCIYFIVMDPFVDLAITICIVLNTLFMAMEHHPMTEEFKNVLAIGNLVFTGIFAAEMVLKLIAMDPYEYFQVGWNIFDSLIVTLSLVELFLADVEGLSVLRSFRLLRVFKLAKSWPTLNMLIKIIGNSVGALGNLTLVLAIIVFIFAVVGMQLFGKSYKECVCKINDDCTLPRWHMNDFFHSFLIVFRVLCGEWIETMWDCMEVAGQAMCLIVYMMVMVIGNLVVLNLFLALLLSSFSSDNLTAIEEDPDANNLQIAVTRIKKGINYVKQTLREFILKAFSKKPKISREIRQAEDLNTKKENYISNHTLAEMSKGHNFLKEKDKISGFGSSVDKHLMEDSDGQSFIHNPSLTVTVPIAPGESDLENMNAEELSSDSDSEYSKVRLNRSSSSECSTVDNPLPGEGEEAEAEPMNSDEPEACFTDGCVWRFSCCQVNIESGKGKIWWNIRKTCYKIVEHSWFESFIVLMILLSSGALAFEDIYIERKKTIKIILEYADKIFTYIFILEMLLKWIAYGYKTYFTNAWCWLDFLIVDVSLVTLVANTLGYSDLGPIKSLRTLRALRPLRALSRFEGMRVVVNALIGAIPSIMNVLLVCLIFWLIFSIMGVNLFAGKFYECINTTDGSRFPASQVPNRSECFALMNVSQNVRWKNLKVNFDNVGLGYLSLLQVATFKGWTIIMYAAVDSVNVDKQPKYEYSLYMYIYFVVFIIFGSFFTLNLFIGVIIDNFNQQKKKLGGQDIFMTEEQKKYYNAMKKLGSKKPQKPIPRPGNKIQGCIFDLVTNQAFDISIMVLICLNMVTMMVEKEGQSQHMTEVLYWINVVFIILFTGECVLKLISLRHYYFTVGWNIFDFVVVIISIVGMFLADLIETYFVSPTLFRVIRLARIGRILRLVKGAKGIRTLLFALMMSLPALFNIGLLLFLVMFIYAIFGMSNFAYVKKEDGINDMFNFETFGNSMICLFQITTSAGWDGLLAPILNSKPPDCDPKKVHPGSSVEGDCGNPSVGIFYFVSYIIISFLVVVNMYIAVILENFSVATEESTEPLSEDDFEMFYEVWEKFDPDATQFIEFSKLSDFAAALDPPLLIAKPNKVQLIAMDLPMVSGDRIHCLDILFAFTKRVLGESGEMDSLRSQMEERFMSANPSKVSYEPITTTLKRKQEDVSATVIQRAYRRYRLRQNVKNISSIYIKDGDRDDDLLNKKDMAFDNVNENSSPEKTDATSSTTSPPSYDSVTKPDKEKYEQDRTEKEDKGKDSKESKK
Chain of NaV1.7 (Q07699 19-218 partner): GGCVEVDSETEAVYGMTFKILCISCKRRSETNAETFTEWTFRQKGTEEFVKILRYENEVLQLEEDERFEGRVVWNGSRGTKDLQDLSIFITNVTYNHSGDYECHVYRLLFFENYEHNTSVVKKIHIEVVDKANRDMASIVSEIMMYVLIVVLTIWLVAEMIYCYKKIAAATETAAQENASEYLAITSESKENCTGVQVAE

Structure (SMILES) | IC50 [1] [µM] | IC50 [2] [µM]
O=S(=O)(Nc1ncns1)c1cc(F)c(OC[C@@H]2CNCC[C@H]2c2cc(F)c(F)cc2F)cc1F (relative stereo) [Example 106, 2,5-difluoro-N-(1,2,4-thiadiazol-5-yl)-4-((trans-4-(2,4,5-trifluorophenyl)piperidin-3-yl)methoxy)benzenesulfonamide] | 0.181 | > 10
CN(c1ncns1)S(=O)(=O)c1cc(F)c(OC[C@@H]2CNCC[C@H]2c2ccc(Cl)cc2)cc1F (relative stereo) [Example 79, 4-((trans-4-(4-chlorophenyl)piperidin-3-yl)methoxy)-2,5-difluoro-N-methyl-N-(1,2,4-thiadiazol-5-yl)benzenesulfonamide] | 7.88 | > 10
O=S(=O)(Nc1ncns1)c1cc(F)c(OC[C@@H]2C[C@H](O)CCC2c2ccc(Cl)cc2)cc1F (stereo partly drawn) [Example 110, 4-(((trans-5S)-2-(4-chlorophenyl)-5-hydroxycyclohexyl)methoxy)-2,5-difluoro-N-(1,2,4-thiadiazol-5-yl)benzenesulfonamide] | 0.426 | > 10
O=S(=O)(Nc1ncns1)c1cc(F)c(OC[C@@H]2C[C@@H](O)CCC2c2ccc(Cl)cc2)cc1F (stereo partly drawn) [Example 111, 4-(((trans-5R)-2-(4-chlorophenyl)-5-hydroxycyclohexyl)methoxy)-2,5-difluoro-N-(1,2,4-thiadiazol-5-yl)benzenesulfonamide] | 2.04 | > 10
O=S(=O)(Nc1ncns1)c1cc(F)c(OCC2CNCCN2c2ccc(Cl)cc2)cc1F (stereo not drawn) [Example 112, 4-((1-(4-chlorophenyl)piperazin-2-yl)methoxy)-2,5-difluoro-N-(1,2,4-thiadiazol-5-yl)benzenesulfonamide] | 0.326 | > 10
O=S(=O)(c1cc(F)c(OC[C@@H]2CNCC[C@H]2c2ccc(F)cc2)cc1F)n1cccn1 (relative stereo) [Example 98, trans-3-((4-((1H-pyrazol-1-yl)sulfonyl)-2,5-difluorophenoxy)methyl)-4-(4-fluorophenyl)piperidine] | 7.22 | 7.53
